# Measured values from US20220363667A1 (Nippon Chemiphar Co., Ltd., priority 2018, published 2022).
# Entries after “also recorded” stand apart in the source; their conditions may differ.
# Assays:
# SD rats = experiment: Rat formalin test; type: in vivo; conditions: po, 30 mg/kg orally once, pain behavior time from 15 to 30 minutes after formalin administration vs vehicle group, read-out: Inhibition ratio (pain behavior inhibition ratio)
# Protocol: 30 mg/kg of a vehicle or a test substance was orally administrated to SD rats once, and according to the method described in McNamara C. R., Mandel-Brehm J., Bautista D. M., Siemens J., Deranian K. L., Zhao M., Hayward N. J., Chong J. A., Julius D., Moran M. M., Fanger C. M.: TRPA1 mediates formalin-induced pain. Proc. Natl. Acad. Sci. U.S.A. 104, 2007, 13525-13530, 50 μL of a 2.0% formalin solution as a pain-inducing substance was subcutaneously administered under the skin of the plantar plate of the right hind limb of each rat.
# Regarding the evaluation, the pain behavior inhibition ratio was determined from the pain behavior time of each test substance-administered group with respect to the pain behavior time of the vehicle-administered group for 15 minutes measured from 15 minutes to 30 minutes after the administration.
# human Cav3.2 channels = target: T1, human Cav3.2 channels (Homo sapiens, UniProt O95180); experiment: T-type calcium blocking action: intracellular calcium concentration in cells steadily expressing human Cav3.2 channels; type: cell-based; conditions: HEK293 cells steadily expressing human Cav3.2 channels; Fluo-4 AM fluorescence increase after KCl stimulus
# T1 construct: expressed in transfected cells
# T1 sequence (O95180 whole entry): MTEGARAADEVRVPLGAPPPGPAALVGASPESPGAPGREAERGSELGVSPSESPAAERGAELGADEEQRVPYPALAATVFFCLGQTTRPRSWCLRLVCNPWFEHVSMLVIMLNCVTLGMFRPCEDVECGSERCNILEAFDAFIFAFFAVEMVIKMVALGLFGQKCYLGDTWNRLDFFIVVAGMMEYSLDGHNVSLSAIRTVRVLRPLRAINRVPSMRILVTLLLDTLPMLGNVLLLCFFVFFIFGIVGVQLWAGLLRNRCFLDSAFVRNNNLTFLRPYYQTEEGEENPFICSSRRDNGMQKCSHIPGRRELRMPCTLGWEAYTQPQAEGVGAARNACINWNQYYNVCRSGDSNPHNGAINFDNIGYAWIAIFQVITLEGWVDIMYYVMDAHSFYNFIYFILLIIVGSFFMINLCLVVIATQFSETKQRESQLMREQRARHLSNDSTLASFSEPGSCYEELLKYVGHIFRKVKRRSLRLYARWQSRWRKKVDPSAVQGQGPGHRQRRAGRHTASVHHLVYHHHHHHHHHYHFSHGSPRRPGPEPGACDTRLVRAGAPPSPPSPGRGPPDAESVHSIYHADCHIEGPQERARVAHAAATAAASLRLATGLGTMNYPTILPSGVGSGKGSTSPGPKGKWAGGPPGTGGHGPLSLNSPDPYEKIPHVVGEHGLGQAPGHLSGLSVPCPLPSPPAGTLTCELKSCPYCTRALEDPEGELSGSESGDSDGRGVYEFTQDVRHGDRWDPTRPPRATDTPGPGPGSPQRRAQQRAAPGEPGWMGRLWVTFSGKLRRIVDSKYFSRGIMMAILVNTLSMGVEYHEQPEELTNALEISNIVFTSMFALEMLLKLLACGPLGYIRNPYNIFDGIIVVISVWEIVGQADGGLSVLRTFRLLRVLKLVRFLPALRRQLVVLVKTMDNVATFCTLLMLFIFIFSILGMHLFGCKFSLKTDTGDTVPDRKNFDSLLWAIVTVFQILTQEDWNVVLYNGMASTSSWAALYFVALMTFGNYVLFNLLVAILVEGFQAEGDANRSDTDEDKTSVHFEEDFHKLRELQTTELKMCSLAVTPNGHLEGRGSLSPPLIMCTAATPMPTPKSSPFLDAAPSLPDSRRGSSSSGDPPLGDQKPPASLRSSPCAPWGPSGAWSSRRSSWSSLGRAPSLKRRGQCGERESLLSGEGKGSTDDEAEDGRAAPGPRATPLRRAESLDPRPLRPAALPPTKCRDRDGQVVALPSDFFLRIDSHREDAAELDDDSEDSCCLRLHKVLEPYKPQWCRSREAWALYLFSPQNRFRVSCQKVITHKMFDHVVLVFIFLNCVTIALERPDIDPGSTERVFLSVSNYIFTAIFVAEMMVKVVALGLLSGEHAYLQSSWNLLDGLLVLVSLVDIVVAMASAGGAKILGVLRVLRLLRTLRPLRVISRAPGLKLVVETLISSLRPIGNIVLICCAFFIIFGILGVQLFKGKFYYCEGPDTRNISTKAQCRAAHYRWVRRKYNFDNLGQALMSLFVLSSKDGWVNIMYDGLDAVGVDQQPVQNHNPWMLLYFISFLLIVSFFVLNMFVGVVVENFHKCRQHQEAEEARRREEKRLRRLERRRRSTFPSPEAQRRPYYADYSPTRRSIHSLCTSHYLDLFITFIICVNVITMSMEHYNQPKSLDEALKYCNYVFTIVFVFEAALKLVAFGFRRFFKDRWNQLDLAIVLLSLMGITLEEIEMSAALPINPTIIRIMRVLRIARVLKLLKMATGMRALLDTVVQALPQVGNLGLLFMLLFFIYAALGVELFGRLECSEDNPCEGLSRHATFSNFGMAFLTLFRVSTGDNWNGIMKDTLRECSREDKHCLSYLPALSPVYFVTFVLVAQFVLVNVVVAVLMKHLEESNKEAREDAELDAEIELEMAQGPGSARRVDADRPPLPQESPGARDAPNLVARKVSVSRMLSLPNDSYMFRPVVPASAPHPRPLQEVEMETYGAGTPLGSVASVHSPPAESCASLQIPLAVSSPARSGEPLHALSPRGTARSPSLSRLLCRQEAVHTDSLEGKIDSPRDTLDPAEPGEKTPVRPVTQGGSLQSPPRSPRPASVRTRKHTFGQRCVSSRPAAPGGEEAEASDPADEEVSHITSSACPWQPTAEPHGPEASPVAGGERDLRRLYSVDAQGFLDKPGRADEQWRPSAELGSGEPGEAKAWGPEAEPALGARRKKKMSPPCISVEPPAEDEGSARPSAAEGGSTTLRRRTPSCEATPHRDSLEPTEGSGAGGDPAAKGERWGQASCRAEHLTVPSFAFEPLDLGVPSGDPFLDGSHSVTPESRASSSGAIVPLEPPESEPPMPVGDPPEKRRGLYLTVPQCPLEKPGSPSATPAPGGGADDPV
# Excerpt: (1) Construction of Cells Steadily Expressing Human Cav3.2 Channels
# A sequence obtained by adding HindIII site and a kozak sequence (GCCACC) to the 5′-side of human Cav3.2 channel ORF (Open Reading Frame) gene and adding a KpnI site to the 3′-side of the gene, was incorporated into pcDNA3.1 (+) (Thermo Fisher Scientific, #V790-20), and the plasmid was introduced into HEK293 cells (ATCC No. CRL-1573) according to the protocol of FuGENE (registered trademark) HD Transfection Reagent (Promega, #E2311).
# (2) Method for Measuring Intracellular Calcium Concentration
# The cell strain steadily expressing human Cav3.2 channels as produced by the testing method (1) was seeded on a 96-well plate using DMEM including 10% FBS, and the cells were cultured for 48 hours under the conditions of 37° C. and 5% CO2. Subsequently, the medium was removed, and each of the wells were washed with buffer A and treated with 80 μL of a fluorescent dye solution including a mixed liquid of 22 μg of a fluorescent calcium indicator, Fluo-4 AM (Dojindo Molecular Technologies, Inc., #F311), 20 μL of dimethyl sulfoxide (DMSO), 1 μL of 10% Pluronic F-127 (Thermo Fisher Scientific, #P6866), and 4 mL of buffer A. After the cells were left to stand for 45 minutes at room temperature under light-shielded conditions, and then the cells were washed with buffer B. DMSO as a negative control and various test compound solutions each obtained by dissolving a test compound dissolved in DMSO, in buffer B so as to obtain a 10-fold concentration of the evaluation concentration, were introduced into respective wells. The final concentration of DMSO was adjusted to 0.1%. The cells were left to stand for another 15 minutes at room temperature under light-shielded conditions, and measurement was made using a microplate reader, EnVision (PerkinElmer Inc.) using the following method. First, the background fluorescence of each well was measured, subsequently an ionophore was introduced into each well, and the baseline fluorescence was measured. Subsequently, buffer B having 83.8 mM KCl added thereto was introduced, and an increase in fluorescence caused by calcium influx generated by the stimulus was measured for 10 seconds. The percentage inhibition was calculated from the maximum fluorescence increase value from the baseline, the logarithmic value of the test compound concentration and the inhibitory activity are plotted, and thereby the IC50 value was calculated. The measurement was carried out by observing the fluorescence at 510 nm that was emitted when the cells were irradiated with excitation light at 485 nm.
# Buffer A: 140 mM NaCl, 5 mM KCl, 1 mM MgCl2, 0.5 mM CaCl2, 10 mM Glucose, 10 mM HEPES, pH 7.3
# Buffer B: 137.9 mM Choline-Cl, 4.1 mM KCl, 1 mM MgCl2, 0.5 mM CaCl2, 10 mM Glucose, 10 mM HEPES, pH 7.3, equilibrium potential of potassium: −92 mV
# mouse PSNL model = experiment: Mechanical allodynia in mouse partial sciatic nerve ligation (PSNL) model; type: in vivo; conditions: 30 mg/kg orally administered, compared with the vehicle group
# Excerpt: The production of a mouse PSNL model was achieved according to the method of Seltzer et al. A mouse was subjected to inhalation anesthesia with isoflurane. The femoral region of the mouse was shaved and disinfected with isodine. The skin on a thighbone of the mouse was incised, the fascia directly under the skin was cut, and the muscle heads of the musculus biceps femoris were split. The sciatic nerve directly under the fascia was checked, and then the sciatic nerve was detached so as not to damage the nerve. The needle of a needle with 8-0 silk thread was passed through the sciatic nerve to penetrate therethrough, and the sciatic nerve was ligated for about ½ to ⅓ of the whole nerve. The skin was sutured, and the mouse was raised for about 7 days. […]
# The measurement of the pain threshold was carried out after transferring the mice into a cage for measurement and waiting for the exploratory behavior to disappear. Regarding the pain threshold (paw withdrawal filament ((g)), the plantar plates of the mice were stimulated with von Frey filaments (Sttoelting Co.: TOUCH-TEST SENSORY EVLUATOR) having different stimulus intensities, and the presence or absence of an escape response was observed. The 50% threshold was calculated by an up-down method with reference to the method of Chaplan et al. (Quantitative assessment of tactile allodynia in the rat paw. J neurosci Methods, 53, 1994, 55-63). […]
Structure (SMILES),inhibition in vivo at 30 mg/kg (SD rats),IC50 (human Cav3.2 channels),"mechanical allodynia (pain threshold, von Frey filament test) (mouse PSNL model)"
"O=C(N[C@@H]1CCN(c2ccc(F)c(C(F)(F)F)c2)C1)[C@H]1C[C@@H]1c1nc2ccccc2[nH]1 [Example 57, (1S,2S)-2-(1H-benzo[d]imidazol-2-yl)-N—((R)-1-(4-fluoro-3-(trifluoromethyl)phenyl)pyrrolidin-3-yl)cyclopropane-1-carboxyamide]",< 10%,20 nM,–
"Cn1ncc2cc(CC(=O)N[C@@H]3CCN(c4ccc(C(F)(F)F)nc4)C3)ccc21 [Example 144, (R)-2-(1-methyl-1H-indazol-5-yl)-N-(1-(6-(trifluoromethyl)pyridin-3-yl)pyrrolidin-3-yl)acetamide]",≥ 20%,–,inhibited mechanical allodynia statistically significantly; also recorded: suppressed statistically significantly
